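Grown in 96-well plates, cells were treated for 48 hours with each compound at five concentrations. Insufficient inhibition: endpoint recorded as highest concentration tested. GI50: concentration for 50% inhibition of growth. TGI marks complete inhibition of growth.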
Legend:
Experiment in all cases: inhibition of tumour cell growth, NCI panel, 48 h
[1] = tested on: OVCAR-3 ovarian
[2] = tested on: SF-268 CNS
[3] = tested on: OVCAR-4 ovarian
[4] = tested on: HCT-15 colon
[5] = tested on: A549 NSCLC
[6] = tested on: SK-MEL-5 melanoma
[7] = tested on: KM12 colon
[8] = tested on: UO-31 renal
[9] = tested on: SK-OV-3 ovarian
[10] = tested on: HCC-2998 colon

Structure (SMILES): O=c1c(-c2ccccc2)c[nH]c2cc([N+](=O)[O-])c(/C(Cl)=C/c3ccccc3)cc12
- TGI [1]: 8.72 µM
- TGI [2]: 16.7 µM
- TGI [3]: 8.64 µM
- TGI [4]: > 47.1 µM
- TGI [5]: 19.6 µM
- TGI [6]: 25.8 µM
- TGI [7]: 38.6 µM
- TGI [8]: 36.8 µM
- TGI [9]: > 100 µM

Structure (SMILES): C[Si](C)(C)C#C[I+]c1ccccc1
- TGI [1]: 86.2 µM
- TGI [2]: > 100 µM
- TGI [3]: > 100 µM
- TGI [4]: 56.1 µM
- TGI [5]: > 100 µM
- TGI [6]: > 100 µM
- TGI [7]: > 100 µM
- TGI [10]: > 100 µM
- TGI [8]: > 100 µM
- TGI [9]: > 100 µM

Structure (SMILES): O=C(O)CCCN1CCCCC1
- TGI [1]: > 100 µM
- TGI [2]: > 100 µM
- TGI [3]: > 100 µM
- TGI [4]: > 100 µM
- TGI [5]: > 100 µM
- TGI [6]: > 100 µM
- TGI [7]: > 100 µM
- TGI [10]: > 100 µM
- TGI [8]: > 100 µM

Structure (SMILES): Cc1c2cc[n+](C)cc2c(C)c2c1[nH]c1ccc(O)cc12
- TGI [1]: > 89.3 µM
- TGI [2]: 23.7 µM
- TGI [3]: > 100 µM
- TGI [4]: > 100 µM
- TGI [5]: 99.3 µM
- TGI [6]: 58.8 µM
- TGI [7]: > 86.9 µM
- TGI [10]: 98.7 µM
- TGI [8]: 86.8 µM
- TGI [9]: > 100 µM

Structure (SMILES): CN1CCN(c2ccc3nc(-c4ccc(OCCCN5C(=O)c6cccc7cccc(c67)C5=O)cc4)[nH]c3c2)CC1
- GI50 [1]: 27.1 µM
- TGI [1]: 95.6 µM
- GI50 [2]: 26.3 µM
- TGI [2]: 99.8 µM
- GI50 [5]: 16.3 µM
- TGI [5]: 62.4 µM
- GI50 [10]: 20.6 µM
- TGI [10]: 52.6 µM
- GI50 [8]: 14.5 µM
- TGI [8]: 43.1 µM
- GI50 [9]: 10.8 µM
- TGI [9]: 37.5 µM

Structure (SMILES): CC(=O)O[C@H]1C(=O)[C@]2(C)[C@@H](OC(=O)OCC(O)CO)C[C@H]3OC[C@@]3(OC(C)=O)[C@H]2[C@H](OC(=O)c2ccccc2)[C@]2(O)C[C@H](OC(=O)[C@H](O)[C@@H](NC(=O)c3ccccc3)c3ccccc3)C(C)=C1C2(C)C (some centres undefined)
- TGI [1]: < 0.01 µM
- TGI [2]: > 67.8 µM
- TGI [3]: > 83.9 µM
- TGI [4]: 10.9 µM
- TGI [5]: > 100 µM
- TGI [6]: 19.6 µM
- TGI [10]: < 0.01 µM
- TGI [8]: > 100 µM
- TGI [9]: > 100 µM

Structure (SMILES): COc1cc(-c2ccc(-c3ccc(C(=N)N)s3)s2)cc(OC)c1OC
- GI50 [1]: 2.22 µM
- TGI [1]: 4.71 µM
- GI50 [2]: 1.74 µM
- TGI [2]: 3.49 µM
- GI50 [3]: 1.82 µM
- TGI [3]: 3.95 µM
- GI50 [4]: 1.91 µM
- TGI [4]: 4.51 µM
- GI50 [6]: 1.52 µM
- TGI [6]: 2.88 µM
- GI50 [10]: 1.76 µM
- TGI [10]: 3.24 µM
- GI50 [8]: 1.74 µM
- TGI [8]: 3.54 µM
- GI50 [9]: 5.15 µM
- TGI [9]: 18.8 µM

Structure (SMILES): Cc1c2cc[n+](C)cc2c(COC2OC(CO)C(O)C2O)c2c3ccccc3n(C)c12 (centres undefined)
- TGI [1]: > 100 µM
- TGI [2]: > 97 µM
- TGI [3]: > 100 µM
- TGI [4]: > 100 µM
- TGI [5]: > 100 µM
- TGI [6]: > 100 µM
- TGI [7]: > 100 µM
- TGI [10]: > 100 µM
- TGI [8]: > 100 µM
- TGI [9]: 99.1 µM

Structure (SMILES): NC(=O)c1cc2ccccc2c(N=Nc2ccccc2)c1O
- TGI [1]: > 100 µM
- TGI [2]: > 100 µM
- TGI [3]: > 100 µM
- TGI [4]: > 100 µM
- TGI [5]: > 100 µM
- TGI [6]: > 100 µM
- TGI [7]: > 100 µM
- TGI [8]: > 100 µM
- TGI [9]: > 100 µM

Structure (SMILES): O=C(CCN1CCCC1)Nc1ccc2c(NCCCCc3ccccc3)c3ccccc3nc2c1
- GI50 [1]: 1.25 µM
- TGI [1]: 2.57 µM
- GI50 [3]: 1.12 µM
- TGI [3]: 2.52 µM
- GI50 [4]: 1.62 µM
- TGI [4]: 3.1 µM
- GI50 [6]: 1.56 µM
- TGI [6]: 2.91 µM
- GI50 [7]: 1.33 µM
- TGI [7]: 2.74 µM
- GI50 [10]: 0.815 µM
- TGI [10]: 2.14 µM
- GI50 [8]: 1.55 µM
- TGI [8]: 2.92 µM

Structure (SMILES): CCCCN(CCCC)CC(=O)c1ccc2cc(Cl)c3ccccc3c2c1
- TGI [1]: > 100 µM
- TGI [2]: 42.1 µM
- TGI [3]: 69.1 µM
- TGI [4]: 53.3 µM
- TGI [5]: > 100 µM
- TGI [6]: 34.6 µM
- TGI [7]: > 100 µM
- TGI [10]: 76.8 µM
- TGI [8]: 50.4 µM
- TGI [9]: > 100 µM

Structure (SMILES): COc1cccc2c1C(=O)c1c(O)c3c(c(O)c1C2=O)C[C@@](O)(C(C)=O)C[C@@H]3OC1CC(N)C(O)C(C)O1 (some centres undefined)
- GI50 [1]: 0.0664 µM
- GI50 [2]: 0.0183 µM
- GI50 [3]: 0.0643 µM
- TGI [4]: 8.07 µM [middle of 6 runs]
- GI50 [5]: 0.0153 µM
- GI50 [6]: < 0.018 µM
- GI50 [7]: 0.0443 µM
- GI50 [9]: 0.0189 µM

Structure (SMILES): CC(C)(C)CC(C)(C)Cc1ccc(OCCOCC[N+](C)(C)Cc2ccccc2)cc1
- GI50 [1]: 1.34 µM
- TGI [1]: 3.09 µM
- GI50 [2]: 1.59 µM
- TGI [2]: 3.19 µM
- GI50 [3]: 0.681 µM
- TGI [3]: 3.94 µM
- GI50 [4]: 14.4 µM
- TGI [4]: 33.5 µM
- GI50 [5]: 5.06 µM
- TGI [5]: 19.7 µM
- GI50 [6]: 0.517 µM
- TGI [6]: 1.79 µM
- GI50 [10]: 1.58 µM
- TGI [10]: 3.02 µM
- GI50 [8]: 14.2 µM
- TGI [8]: 34.7 µM
- GI50 [9]: 2.71 µM
- TGI [9]: 12.4 µM

Structure (SMILES): CCC1=C(C)C2=NC1=CC1=NC(=C(CC)/C1=C/O)C=C1N=C3C(=C1C)C(=O)C(C(=O)OC)C3=C1NC(=C2)C(C)C1CCC(=O)OC (centres undefined)
- TGI [1]: > 100 µM
- TGI [2]: > 100 µM
- TGI [3]: > 100 µM
- TGI [4]: > 100 µM
- TGI [5]: > 100 µM
- TGI [6]: > 100 µM
- TGI [7]: > 100 µM
- TGI [10]: > 100 µM
- TGI [8]: > 100 µM
- TGI [9]: > 100 µM

Structure (SMILES): N#Cc1ccc(Nc2nc3nc[nH]c3c(=O)[nH]2)cc1
- TGI [1]: > 100 µM
- TGI [2]: > 100 µM
- TGI [3]: > 100 µM
- TGI [4]: > 100 µM
- TGI [5]: > 100 µM
- TGI [6]: > 100 µM
- TGI [7]: > 100 µM
- TGI [10]: > 100 µM
- TGI [8]: > 100 µM
- TGI [9]: > 100 µM

Structure (SMILES): Cc1cc(SCC(=O)c2ccc(Br)cc2)cc(C)[o+]1
- TGI [1]: 49.8 µM
- TGI [2]: > 100 µM
- TGI [3]: 83.7 µM
- TGI [4]: > 100 µM
- TGI [5]: > 100 µM
- TGI [6]: 35.9 µM
- TGI [7]: 62.6 µM
- TGI [10]: 75.2 µM
- TGI [8]: 83.9 µM
- TGI [9]: > 100 µM

— PubChem BioAssay (NCI)
